ChEMBL document CHEMBL5042513, “Discovery of 2H-chromone-4-one based sulfonamide derivatives as potent retinoic acid receptor-related orphan receptor γt inverse agonists” (Eur J Med Chem, 2022)
Blank lines part the entries; values can stand above or below the compound they belong to.

Columns and labels:
[1] = Lipophilicity, logD of the compound at pH 7.4; conditions: buffer
in vitro [2] = conditions: human, liver microsomes
Description: Metabolic stability in human liver microsomes assessed as intrinsic clearance at 10 uM in presence of NADPH by HPLC-MS/MS analysis

in vitro [3] = conditions: human, liver microsomes; remark: listed apart in the source
Description: Metabolic stability in human liver microsomes assessed as half life at 10 uM in presence of NADPH by HPLC-MS/MS analysis

[4] = Metabolic stability in human liver microsomes assessed as parent compound remaining level at 10 uM in presence of NADPH incubated for 60 mins by HPLC-MS/MS analysis
[5] = target: T1, Nuclear receptor ROR-gamma (Homo sapiens, UniProt P51449); assay: Displacement of BODIPY from APC-labelled RORgammat LBD (unknown origin) incubated for 1 hrs by binding assay
T1 sequence (P51449 whole entry): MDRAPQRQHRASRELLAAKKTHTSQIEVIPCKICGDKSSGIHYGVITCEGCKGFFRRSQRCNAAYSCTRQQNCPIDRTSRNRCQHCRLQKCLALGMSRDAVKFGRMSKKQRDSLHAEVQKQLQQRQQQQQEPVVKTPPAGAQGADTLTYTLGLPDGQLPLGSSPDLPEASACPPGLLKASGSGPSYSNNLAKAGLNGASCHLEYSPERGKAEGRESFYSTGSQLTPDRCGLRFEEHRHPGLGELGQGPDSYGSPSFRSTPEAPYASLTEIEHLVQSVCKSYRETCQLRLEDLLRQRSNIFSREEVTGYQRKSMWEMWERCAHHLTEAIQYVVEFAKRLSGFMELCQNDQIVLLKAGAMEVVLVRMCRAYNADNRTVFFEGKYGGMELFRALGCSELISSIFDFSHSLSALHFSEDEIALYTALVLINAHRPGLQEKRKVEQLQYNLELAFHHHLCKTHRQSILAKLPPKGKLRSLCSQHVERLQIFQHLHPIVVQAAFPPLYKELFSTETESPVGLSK

[6] = target: T1, Nuclear receptor ROR-gamma
Description: Inverse agonist activity at RORgammat (unknown origin) transfected in human Jurkat cells assessed as inhibition of RORgammat transcriptional activity incubated for 8 hrs by luciferase reporter gene assay

in vivo [7] = conditions: mouse, iv, 0.3 mg/kg
in vivo [8] = conditions: mouse, iv, 0.3 mg/kg; remark: listed apart in the source
in vivo [9] = conditions: mouse, po, 1 mg/kg
Mus musculus [10] = species on record: Mus musculus; assay: animal or person; conditions: BALB/c, po, 312 h, read-out: INH
Description: Protection against imiquimod-induced psoriasis model of BALB/c mouse assessed as inhibition of psoriasis clinical score at 10 mg/kg, po administered for 13 days

in vivo [11] = conditions: mouse, iv, 0.3 mg/kg; remark: listed apart in the source
in vivo [12] = conditions: mouse, po, 1 mg/kg; remark: listed apart in the source
in vivo [13] = conditions: mouse, po, 1 mg/kg; remark: listed apart in the source
in vivo [14] = conditions: mouse, iv, 0.3 mg/kg; remark: listed apart in the source
in vivo [15] = conditions: mouse, iv, 0.3 mg/kg; remark: listed apart in the source
in vivo [16] = conditions: mouse, po, 1 mg/kg; remark: listed apart in the source
in vivo [17] = conditions: mouse, po, 1 mg/kg; remark: listed apart in the source
in vivo [18] = conditions: mouse, iv, 0.3 mg/kg; remark: listed apart in the source
in vivo [19] = conditions: mouse, iv, 0.3 mg/kg; remark: listed apart in the source
in vivo [20] = conditions: mouse, po, 1 mg/kg; remark: listed apart in the source
Mus musculus [21] = species on record: Mus musculus; assay: animal or person; conditions: BALB/c, po, 312 h, read-out: INH; remark: listed apart in the source
Description: Protection against imiquimod-induced psoriasis model of BALB/c mouse assessed as inhibition of psoriasis clinical score at 20 mg/kg, po administered for 13 days

- logD [1]: 5.02
SMILES: CCc1ccc(N(CC(C)C)S(=O)(=O)c2ccc3c(c2)C(F)CC(C2CCOCC2)O3)cc1 (stereo unspecified)

- logD [1]: 3.64
SMILES: CCc1ccc(N(CC(C)C)S(=O)(=O)c2ccc3c(c2)C(=O)N(C2CCOCC2)C3)cc1

- logD [1]: 2.75
SMILES: Cc1ccc(NS(=O)(=O)c2ccc3c(c2)C(=O)CC(C2CCOCC2)O3)c(C)c1 (stereo unspecified)

- logD [1]: 3.62
SMILES: CC(C)CN(c1ccc(F)cc1F)S(=O)(=O)c1ccc2c(c1)C(=O)CC(C1CCOCC1)O2 (stereo unspecified)

- CLint scaled at 10 µM (in vitro [2]): 202 mL/min/kg
- logD [1]: 3.86
- half-life at 10 µM (in vitro [3]): 6.2 min
- remaining at 1 h, 10 µM [4]: 4.5%
SMILES: Cc1ccc(N(C2CCC2)S(=O)(=O)c2ccc3c(c2)C(=O)CC(C2CCOCC2)O3)c(C)c1 (stereo unspecified)

- CLint scaled at 10 µM (in vitro [2]): 55.8 mL/min/kg
- logD [1]: 3.77
- half-life at 10 µM (in vitro [3]): 22.3 min
- remaining at 1 h, 10 µM [4]: 23%
SMILES: CCc1ccc(N(CC2CC2)S(=O)(=O)c2ccc3c(c2)C(=O)CC(C2CCOCC2)O3)cc1 (stereo unspecified)

- logD [1]: 4.1
SMILES: CCc1ccc(N(CC2CCC2)S(=O)(=O)c2ccc3c(c2)C(=O)CC(C2CCOCC2)O3)cc1 (stereo unspecified)

- logD [1]: 4.75
SMILES: CCc1ccc(N(CC(C)C)S(=O)(=O)c2ccc3c(c2)C(=O)CC(C2CCN(S(=O)(=O)C4CCCC4)CC2)O3)cc1 (stereo unspecified)

- CLint scaled at 10 µM (in vitro [2]): 98.5 mL/min/kg
- logD [1]: 3.6
- half-life at 10 µM (in vitro [3]): 12.8 min
- remaining at 1 h, 10 µM [4]: 11.5%
SMILES: CC(C)CN(c1ccc(N(C)C)cc1)S(=O)(=O)c1ccc2c(c1)C(=O)CC(C1CCOCC1)O2 (stereo unspecified)

- IC50 [5]: > 10 µM
- logD [1]: 2.72
- IC50 [6]: > 10 µM
SMILES: CCc1ccc(N(C2COC2)S(=O)(=O)c2ccc3c(c2)C(=O)CC(C2CCOCC2)O3)cc1 (stereo unspecified)

- CLint scaled at 10 µM (in vitro [2]): 21.1 mL/min/kg
- logD [1]: 3.04
- half-life at 24 h (in vivo [7]): 56.4 min
- Tmax at 24 h (in vivo [8]): 1.02 h
- half-life at 24 h (in vivo [9]): 88.2 min
- Cmax at 24 h (in vivo [11]): 75 ng/mL
- Tmax at 24 h (in vivo [12]): 1.59 h
- AUC(0-inf) at 24 h (in vivo [13]): 219 ng·h/mL
- AUC(0-t) at 24 h (in vivo [14]): 135 ng·h/mL
- AUC(0-inf) at 24 h (in vivo [15]): 140 ng·h/mL
- AUC(0-t) at 24 h (in vivo [16]): 212 ng·h/mL
- Cmax at 24 h (in vivo [17]): 82 ng/mL
- clearance at 24 h (in vivo [18]): 30.2 mL/min/kg
- half-life at 10 µM (in vitro [3]): 59 min
- Vd at 24 h (in vivo [19]): 1.62 L/kg
- bioavailability at 24 h (in vivo [20]): 47%
- remaining at 1 h, 10 µM [4]: 50.2%
SMILES: Cc1nc(N2CCOCC2)ccc1N(CC(C)C)S(=O)(=O)c1ccc2c(c1)C(=O)CC(C1CCOCC1)O2 (stereo unspecified)
- inhibition in vivo at 10 mg/kg (Mus musculus [10]): 54.5%
- inhibition in vivo at 20 mg/kg (Mus musculus [21]): 77.7%

- logD [1]: 3.97
SMILES: CCc1ccc(N(CC(F)(F)F)S(=O)(=O)c2ccc3c(c2)C(=O)CC(C2CCOCC2)O3)cc1 (stereo unspecified)

- logD [1]: 4.84
SMILES: CCc1ccc(N(CC(C)C)S(=O)(=O)c2ccc(OCC3CCOCC3)c3c2CCCC3=O)cc1

The next lines start with the compound.

SMILES: CC(C)CN(c1cccc(F)c1)S(=O)(=O)c1ccc2c(c1)C(=O)CC(C1CCOCC1)O2 (stereo unspecified)
- logD [1]: 3.5

SMILES: CCc1ccc(NS(=O)(=O)c2ccc3c(c2)C(=O)CC(C2CCOCC2)O3)cc1 (stereo unspecified)
- logD [1]: 2.67

SMILES: CC(C)CN(c1ccc(F)cc1)S(=O)(=O)c1ccc2c(c1)C(=O)CC(C1CCOCC1)O2 (stereo unspecified)
- CLint scaled at 10 µM (in vitro [2]): 1760 mL/min/kg
- logD [1]: 3.48
- half-life at 10 µM (in vitro [3]): 0.7 min
- remaining at 1 h, 10 µM [4]: 0.2%

SMILES: CCc1ccc(N(CC(C)C)S(=O)(=O)c2ccc3c(c2)C(=O)CC(CC2CCOCC2)O3)cc1 (stereo unspecified)
- logD [1]: 4.53

SMILES: CCc1ccc(N(CC(C)C)S(=O)(=O)c2ccc3c(c2)C(=O)CC(C2CCN(S(C)(=O)=O)CC2)O3)cc1 (stereo unspecified)
- logD [1]: 3.31

SMILES: CC(C)CN(c1ccccc1F)S(=O)(=O)c1ccc2c(c1)C(=O)CC(C1CCOCC1)O2 (stereo unspecified)
- logD [1]: 3.44

SMILES: CCc1ccc(N(CC(C)C)S(=O)(=O)c2ccc(OCC3CCOCC3)c(CO)c2)cc1 [GSK2981278]
- CLint scaled at 10 µM (in vitro [2]): 1610 mL/min/kg
- remaining at 1 h, 10 µM [4]: 0.2%

SMILES: CC(C)CN(C1CCc2ccc(F)cc21)S(=O)(=O)c1ccc2c(c1)C(=O)CC(C1CCOCC1)O2 (stereo unspecified)
- logD [1]: 4.03

SMILES: CCc1ccc(N(CC(C)C)S(=O)(=O)c2ccc3c(c2)C(=O)CC(C2CCN(C(=O)OC(C)(C)C)CC2)O3)cc1 (stereo unspecified)
- IC50 [5]: > 10 µM
- logD [1]: 5.1
- IC50 [6]: > 10 µM

SMILES: CCc1ccc2c(c1)CC(C)CN2S(=O)(=O)c1ccc2c(c1)C(=O)CC(C1CCOCC1)O2 (stereo unspecified)
- IC50 [5]: > 10 µM
- logD [1]: 3.77
- IC50 [6]: > 10 µM

SMILES: CCc1ccc(N(CC(C)C)S(=O)(=O)c2ccc3cc(OCC4CCOCC4)c(C(=O)O)cc3c2)cc1
- IC50 [5]: > 10 µM
- logD [1]: 1.77
- IC50 [6]: > 10 µM

SMILES: CCc1ccc(N(CC(C)C)S(=O)(=O)c2ccc3oc(C4CCOCC4)cc(=O)c3c2)cc1
- logD [1]: 4.5

SMILES: CC(C)CN(c1cc2ccccc2s1)S(=O)(=O)c1ccc2c(c1)C(=O)CC(C1CCOCC1)O2 (stereo unspecified)
- logD [1]: 4.01

SMILES: CCc1ccc(N(Cc2ccccc2)S(=O)(=O)c2ccc3c(c2)C(=O)CC(C2CCOCC2)O3)cc1 (stereo unspecified)
- logD [1]: 4.84

SMILES: CC(C)CN(c1ccc(C#N)cc1)S(=O)(=O)c1ccc2c(c1)C(=O)CC(C1CCOCC1)O2 (stereo unspecified)
- logD [1]: 3.16

SMILES: CC(C)CN(c1ccc(C(C)(C)C)cc1)S(=O)(=O)c1ccc2c(c1)C(=O)CC(C1CCOCC1)O2 (stereo unspecified)
- logD [1]: 4.97

SMILES: O=C1CC(C2CCOCC2)Oc2ccc(S(=O)(=O)N3CCCC3c3ccccc3C(F)(F)F)cc21 (stereo unspecified)
- logD [1]: 3.5

SMILES: CCc1ccc(N(CC(C)C)S(=O)(=O)c2ccc3cc(OCC4CCOCC4)c(CO)cc3c2)cc1
- logD [1]: 5.1

SMILES: CCc1ccc(N(CC(C)C)S(=O)(=O)c2ccc3c(c2)C(=O)CC(C2(C)CCOCC2)O3)cc1 (stereo unspecified)
- logD [1]: 4.71

SMILES: CCc1ccc(N(CC(C)C)S(=O)(=O)c2ccc3c(c2)C(=O)CC(C(C)C2CCOCC2)O3)cc1 (stereo unspecified)
- logD [1]: 4.93

SMILES: CCS(=O)(=O)c1ccc(CNS(=O)(=O)c2ccc3c(c2)C(=O)CC(C2CCOCC2)O3)nc1 (stereo unspecified)
- IC50 [5]: > 10 µM
- logD [1]: 0.32
- IC50 [6]: > 10 µM

SMILES: CCc1ccc(N(CC(C)C)S(=O)(=O)c2ccc3c(c2)C(=O)CC(C2CCN(C(=O)C4CCCC4)CC2)O3)cc1 (stereo unspecified)
- logD [1]: 5.13

SMILES: CCc1ccc(N(C2CCC2)S(=O)(=O)c2ccc3c(c2)C(=O)CC(C2CCOCC2)O3)cc1 (stereo unspecified)
- logD [1]: 3.78

SMILES: CCc1ccc(N(CC(C)C)S(=O)(=O)c2ccc3cc(OCC4CCOCC4)c(C(=O)OC)cc3c2)cc1
- logD [1]: 6.09

SMILES: CCc1ccc(N(CC(C)C)S(=O)(=O)c2ccc3c(c2)C(=O)CC(C2CCNCC2)O3)cc1 (stereo unspecified)
- logD [1]: 2.21

SMILES: CC(C)CN(Cc1ccccc1C(F)(F)F)S(=O)(=O)c1ccc2c(c1)C(=O)CC(C1CCOCC1)O2 (stereo unspecified)
- logD [1]: 4.32

SMILES: CCc1ccc(N(CC(C)C)S(=O)(=O)c2ccc3cc(OCC4CCOCC4)c(C(=O)OCC4CCOCC4)cc3c2)cc1
- logD [1]: 6.34
